These results are taken from ChEMBL document CHEMBL4422652, “Synthesis and biological evaluation of novel oleanolic acid analogues as potential α-glucosidase inhibitors” (Eur J Med Chem, 2019).

As usually defined, the IC50 is the midpoint of a concentration-inhibition curve. As a reminder, the Km is the concentration of substrate that gives half-maximal velocity. By Ki is commonly meant a dissociation constant, usually derived from enzyme kinetics or from competition with a known ligand. Low readings indicate tighter binding, high ones weaker binding.

Series [1] can be described thus: Inhibition of baker's yeast alpha-glucosidase using phenol-alphaD-glycopyranoside as substrate preincubated for 10 mins followed by substrate addition and measured after 30 mins. Also on record: species or system Saccharomyces cerevisiae.
A further series has as its system Saccharomyces cerevisiae. Briefly: Non-competitive inhibition of baker's yeast alpha-glucosidase assessed as Km for substrate using varying levels of phenol-alphaD-glycopyranoside as substrate preincubated for 10 mins followed by substrate addition and measured after 30 mins by double reciprocal plot analysis.
A further series concerns NIH3T3. Briefly: Cytotoxicity against mouse 3T3 cells assessed as growth inhibition measured after 48 hrs by MTT assay. Format: cell-based. The settings on record: NIH3T3, 48 h. A general note: Tetrazolium dyes change colour on reduction, which living cells bring about.
Series [2] has as its system Mus musculus. Kind of series: Hypoglycemic activity in streptozocin-induced diabetic Kunming mouse assessed as reduction in blood glucose level at 50 mg/kg, po measured at 2 hrs post dose. Type of series: functional, organism-based.
The subject of series [3] is Mus musculus. Briefly: Hypoglycemic activity in streptozocin-induced diabetic Kunming mouse assessed as reduction in blood glucose level at 50 mg/kg, po treated 30 mins prior to glucose challenge and measured up to 210 mins by OGTT. Type of series: functional, organism-based.
In series [4] the test system is Mus musculus. Briefly: Hypoglycemic activity in streptozocin-induced diabetic Kunming mouse assessed as reduction in blood glucose level at 50 mg/kg, po measured at 9 hrs post dose. Type of series: functional, organism-based.
Series [5] deals with Mus musculus. Briefly: Hypoglycemic activity in streptozocin-induced diabetic Kunming mouse assessed as blood glucose level at 50 mg/kg, po administered once daily for 18 days measured on day 6 post dose (reference value: 22.31 +/- 1.05 mM). Format: functional.
Series [6] deals with Mus musculus. Kind of series: Hypoglycemic activity in streptozocin-induced diabetic Kunming mouse assessed as blood glucose level at 50 mg/kg, po administered once daily for 18 days measured on day 12 post dose (reference value: 23.27 +/- 1.03 mM). Format: functional.
Series [7] relates to Mus musculus. Kind of series: Hypoglycemic activity in streptozocin-induced diabetic Kunming mouse assessed as reduction in blood glucose AUC at 50 mg/kg, po treated 30 mins prior to glucose challenge and measured up to 210 mins by OGTT. Format: functional, organism-based.
A short description of series [8]: Non-competitive inhibition of baker's yeast alpha-glucosidase using varying levels of phenol-alphaD-glycopyranoside as substrate preincubated for 10 mins followed by substrate addition and measured after 30 mins by double reciprocal plot analysis. Also on record: species or system Saccharomyces cerevisiae.
A short description of series [9]: Toxicity in streptozocin-induced diabetic Kunming mouse assessed as effect on body weight at 50 mg/kg, po administered once daily for 18 days measured every 6 days starting from day 1 during compound dosing. Format: organism-based. Conditions: in vivo.
Series [10] has as its system Mus musculus. Kind of series: Hypoglycemic activity in streptozocin-induced diabetic Kunming mouse assessed as blood glucose level at 50 mg/kg, po administered once daily for 18 days measured on day 1 post dose (reference value: 18.86 +/- 0.7 mM). Format: functional.
Series [11] relates to Mus musculus. Briefly: Hypoglycemic activity in streptozocin-induced diabetic Kunming mouse assessed as blood glucose level at 50 mg/kg, po administered once daily for 18 days measured on day 12 post dose (reference value: 23.09 +/- 1.45 mM). Format: functional.

Each structure is given as a SMILES string. Calls of active or inactive are those of the source. The rule behind the calls is not given here.

Turning to `CC1(C)CC[C@@]23CC[C@]4(C)[C@](OC2=O)([C@H](F)C[C@@H]2[C@@]5(C)C/C(=C\c6ccccc6F)C(=O)C(C)(C)[C@@H]5CC[C@]24C)[C@@H]3C1`, in [1], the IC50 was determined as 1740 nM.

`CC1(C)CC[C@@]23CC[C@]4(C)[C@](OC2=O)([C@H](F)C[C@@H]2[C@@]5(C)C/C(=C\c6ccccn6)C(=O)C(C)(C)[C@@H]5CC[C@]24C)[C@@H]3C1` came in with an IC50 in [1] of 2670 nM.

For `COc1cccc(/C=C2\C[C@]3(C)[C@H]4C[C@@H](F)[C@]56OC(=O)[C@@]7(CCC(C)(C)C[C@H]75)CC[C@@]6(C)[C@]4(C)CC[C@H]3C(C)(C)C2=O)c1`, in series [1], the IC50 was 3290 nM.

`CC1(C)CC[C@@]23CC[C@]4(C)[C@](OC2=O)([C@H](F)C[C@@H]2[C@@]5(C)C/C(=C\c6ccc(-n7cncn7)cc6)C(=O)C(C)(C)[C@@H]5CC[C@]24C)[C@@H]3C1` registered an IC50 in [1] of 3180 nM.

Regarding `CC1(C)CC[C@@]23CC[C@]4(C)[C@](OC2=O)([C@H](F)C[C@@H]2[C@@]5(C)C/C(=C\c6cccc(Cl)c6)C(=O)C(C)(C)[C@@H]5CC[C@]24C)[C@@H]3C1`, in the series with Saccharomyces cerevisiae, the Km was determined as 120 µM. In addition, the IC50 is > 300000 nM in the series on NIH3T3 and 980 nM in series [1]. The result in the series on Mus musculus [2], in the series with Mus musculus [3], in the series on Mus musculus [4] and in the series on Mus musculus [7] was Active. For the same molecule, the Activity is reported as 24.39 mM in the series with Mus musculus [5]; 17.52 mM with Mus musculus [6]; “Non-Toxic” in series [9]; 20.66 mM with Mus musculus [10]; 23.51 mM in the series on Mus musculus [11]. For the same molecule, the Ki in series [8] came out at 1490 nM.

The molecule `CC1(C)CC[C@@]23CC[C@]4(C)[C@](OC2=O)([C@H](F)C[C@@H]2[C@@]5(C)C/C(=C\c6ccc(C(F)(F)F)nc6)C(=O)C(C)(C)[C@@H]5CC[C@]24C)[C@@H]3C1` displayed an IC50 in [1] of 1860 nM.

For the molecule `CC1(C)CC[C@@]23CC[C@]4(C)[C@](OC2=O)([C@H](F)C[C@@H]2[C@@]5(C)C/C(=C\c6ccccc6Cl)C(=O)C(C)(C)[C@@H]5CC[C@]24C)[C@@H]3C1`, the IC50 in [1] is 1540 nM.

With `CC1(C)CC[C@@]23CC[C@]4(C)[C@](OC2=O)([C@H](F)C[C@@H]2[C@@]5(C)C/C(=C\c6ccccc6)C(=O)C(C)(C)[C@@H]5CC[C@]24C)[C@@H]3C1`, 3430 nM corresponded to half-maximal inhibition in [1] (IC50).

As for `C[C@H]1O[C@H](O[C@H]2[C@H](O)[C@@H](O)[C@@H](O[C@H]3[C@H](O)[C@@H](O)C(O)O[C@@H]3CO)O[C@@H]2CO)[C@H](O)[C@@H](O)[C@@H]1N[C@H]1C=C(CO)[C@@H](O)[C@H](O)[C@H]1O` (stereo partly drawn) [ACARBOSE], the Activity with Mus musculus [5] is 22.44 mM; in the series on Mus musculus [6], 15.48 mM; with Mus musculus [10] it was 19.14 mM; in the series on Mus musculus [11] it was 20.41 mM. 579000 nM corresponded to half-maximal inhibition in [1] (IC50).

On to `CC1(C)CC[C@@]23CC[C@]4(C)[C@](OC2=O)([C@H](F)C[C@@H]2[C@@]5(C)C/C(=C\c6cccc(Br)c6)C(=O)C(C)(C)[C@@H]5CC[C@]24C)[C@@H]3C1`, for which inhibition in series [1] was half-maximal at 1860 nM (IC50).

With `CC1(C)CC[C@@]23CC[C@]4(C)[C@](OC2=O)([C@H](F)C[C@@H]2[C@@]5(C)C/C(=C\c6ccc(Cl)cn6)C(=O)C(C)(C)[C@@H]5CC[C@]24C)[C@@H]3C1`, in the series on Saccharomyces cerevisiae, the Km turned out to be 120 µM. Further, the IC50 was > 300000 nM with NIH3T3 and 720 nM in series [1]. The result in the series with Mus musculus [2], in the series with Mus musculus [3], in the series on Mus musculus [4] and in the series on Mus musculus [7] was Active. The Activity in the series with Mus musculus [5] is given as 20.51 mM; in the series on Mus musculus [6], 13.13 mM; in series [9], “Non-Toxic”; in the series with Mus musculus [10], 17.45 mM; in the series with Mus musculus [11], 18.29 mM. In series [8], the Ki was found to be 1190 nM.

For the molecule `CC1(C)CC[C@@]23CC[C@]4(C)[C@](OC2=O)([C@H](F)C[C@@H]2[C@@]5(C)C/C(=C\c6ccc(Br)cc6F)C(=O)C(C)(C)[C@@H]5CC[C@]24C)[C@@H]3C1`, the 50% inhibitory concentration (IC50) in series [1] is 1170 nM.

In the case of `CC1(C)CC[C@@]23CC[C@]4(C)[C@](OC2=O)([C@H](F)C[C@@H]2[C@@]5(C)C/C(=C\c6ccc(Cl)cc6)C(=O)C(C)(C)[C@@H]5CC[C@]24C)[C@@H]3C1`, the Km in the series on Saccharomyces cerevisiae was found to be 120 µM. For the same molecule, the values for the IC50 (with NIH3T3; in series [1]) were > 300000 nM and 690 nM, respectively. In addition, the result in the series with Mus musculus [3], in the series with Mus musculus [4] and in the series on Mus musculus [7] was Active. Besides, the Activity was 23.59 mM with Mus musculus [5]; 16.22 mM in the series on Mus musculus [6]; “Non-Toxic” in [9]; 19.59 mM in the series on Mus musculus [10]; 20.25 mM in the series with Mus musculus [11]. In [8], this molecule yielded a Ki of 880 nM.

In [1], `COc1ccc(/C=C2\C[C@]3(C)[C@H]4C[C@@H](F)[C@]56OC(=O)[C@@]7(CCC(C)(C)C[C@H]75)CC[C@@]6(C)[C@]4(C)CC[C@H]3C(C)(C)C2=O)c(OC)c1` showed an IC50 of 1920 nM.

In series [1], `CC1(C)CC[C@@]23CC[C@]4(C)[C@](OC2=O)([C@H](F)C[C@@H]2[C@@]5(C)C/C(=C\c6ccc(Br)cc6)C(=O)C(C)(C)[C@@H]5CC[C@]24C)[C@@H]3C1` registered an IC50 of 1060 nM.

In series [1], `CC1(C)CC[C@@]23CC[C@]4(C)[C@](OC2=O)([C@H](F)C[C@@H]2[C@@]5(C)CC[C@H](O)C(C)(C)[C@@H]5CC[C@]24C)[C@@H]3C1` registered an IC50 of 8120 nM.

Turning to `CC1(C)CC[C@@]23CC[C@]4(C)[C@](OC2=O)([C@H](F)C[C@@H]2[C@@]5(C)C/C(=C\c6cccc(F)c6)C(=O)C(C)(C)[C@@H]5CC[C@]24C)[C@@H]3C1`, in [1], the IC50 stood at 2790 nM.

For `CC1(C)CC[C@@]23CC[C@]4(C)[C@](OC2=O)([C@H](F)C[C@@H]2[C@@]5(C)C/C(=C\c6cnccn6)C(=O)C(C)(C)[C@@H]5CC[C@]24C)[C@@H]3C1`, in series [1], 3140 nM corresponded to half-maximal inhibition (IC50).

Molecule `COc1ccccc1/C=C1\C[C@]2(C)[C@H]3C[C@@H](F)[C@]45OC(=O)[C@@]6(CCC(C)(C)C[C@H]64)CC[C@@]5(C)[C@]3(C)CC[C@H]2C(C)(C)C1=O` registered an IC50 in series [1] of 2740 nM.

`CC1(C)CC[C@@]23CC[C@]4(C)[C@](OC2=O)([C@H](F)C[C@@H]2[C@@]5(C)C/C(=C\c6ccccc6Br)C(=O)C(C)(C)[C@@H]5CC[C@]24C)[C@@H]3C1` yielded an IC50 in series [1] of 2510 nM.

Consider `Cc1ccccc1/C=C1\C[C@]2(C)[C@H]3C[C@@H](F)[C@]45OC(=O)[C@@]6(CCC(C)(C)C[C@H]64)CC[C@@]5(C)[C@]3(C)CC[C@H]2C(C)(C)C1=O`, for which the IC50 in series [1] stood at 1580 nM.

Consider `COc1ncc(F)cc1/C=C1\C[C@]2(C)[C@H]3C[C@@H](F)[C@]45OC(=O)[C@@]6(CCC(C)(C)C[C@H]64)CC[C@@]5(C)[C@]3(C)CC[C@H]2C(C)(C)C1=O`, for which the IC50 in series [1] was 2050 nM.

With `CC1(C)CC[C@]2(C(=O)O)CC[C@]3(C)C(=CC[C@@H]4[C@@]5(C)CC[C@H](O)C(C)(C)[C@@H]5CC[C@]43C)[C@@H]2C1` [OLEANOLIC_ACID], the IC50 in series [1] came to 2410 nM.

Regarding `CC1(C)CC[C@@]23CC[C@]4(C)[C@](OC2=O)([C@H](F)C[C@@H]2[C@@]5(C)C/C(=C\c6ccc(-c7ccccn7)cc6)C(=O)C(C)(C)[C@@H]5CC[C@]24C)[C@@H]3C1`, half-maximal inhibition in [1] (IC50) required 3670 nM.

Regarding `C[C@@H]1C[C@@H]([C@H](O)CC2CC(=O)NC(=O)C2)C(=O)[C@@H](C)C1` [CYCLOHEXIMIDE], in the series on NIH3T3, the IC50 stood at 250 nM.

In series [1], `Cc1ccc(/C=C2\C[C@]3(C)[C@H]4C[C@@H](F)[C@]56OC(=O)[C@@]7(CCC(C)(C)C[C@H]75)CC[C@@]6(C)[C@]4(C)CC[C@H]3C(C)(C)C2=O)cc1` yielded an IC50 of 1290 nM.

For `CC1(C)CC[C@@]23CC[C@]4(C)[C@](OC2=O)([C@H](F)C[C@@H]2[C@@]5(C)CCC(=O)C(C)(C)[C@@H]5CC[C@]24C)[C@@H]3C1`, the IC50 in [1] amounted to 16700 nM.

Consider `Cc1cccc(/C=C2\C[C@]3(C)[C@H]4C[C@@H](F)[C@]56OC(=O)[C@@]7(CCC(C)(C)C[C@H]75)CC[C@@]6(C)[C@]4(C)CC[C@H]3C(C)(C)C2=O)c1`, for which half-maximal inhibition in series [1] (IC50) required 2160 nM.

Take `CC1(C)CC[C@@]23CC[C@]4(C)[C@](OC2=O)([C@H](F)C[C@@H]2[C@@]5(C)C/C(=C\c6ccc(F)cc6)C(=O)C(C)(C)[C@@H]5CC[C@]24C)[C@@H]3C1`: the IC50 in series [1] came out at 1510 nM.
